Measurements from US6664251B2, “Benzothiazine derivative” (Daiichi Suntory Pharma Co., Ltd., priority 1993, dated 2003).

Tests used:
serotonin-2 receptor = test: Anti-serotonin action (anti-5-HT action): contraction of isolated superior mesenteric artery induced by serotonin; settings: contraction induced by 10^−5 M serotonin (5-HT) taken as 100%, Hartley male guinea pig superior mesenteric artery; for Anti 5-HT action (% of Control) 10^−6 M: test drug 10^−6 M; for Anti 5-HT action (% of Control) 10^−7 M: test drug 10^−7 M
Procedure: (1) Anti-Serotonin Action (Anti-5-HT Action)
A preparation cut in a helical form was suspended under 0.3 g load in a Magnus cylinder filled with the Tyrode solution which had been aerated with a gas mixture of 95% O2+5% CO2 and maintained at 37° C. Using an isometric transducer (“UL-10”, manufactured by SHINKOH K.K.) and a pressure preamplifier (“DSA-605A”, manufactured by SHINKOH K.K.), variations in tension were measured. The isometric tensions were recorded on a pen-writing recorder (“VP-6537A”, manufactured by NATIONAL K.K.). Taking the contraction induced by 10^−5 M serotonin (5-HT) as 100%, the percent contractions in the presence of each test drug at 10^−7 and 10^−6 M were determined as anti-5-HT action.

α1 receptor = test: Anti-α1 action: tonic contraction of isolated thoracic aorta induced by norepinephrine; settings: tonic contraction induced by 10^−5 M norepinephrine (NE) taken as 100%, Hartley male guinea pig thoracic aorta; for Anti α1 action (% of Control) 10^−7 M: test drug 10^−7 M; for Anti α1 action (% of Control) 10^−8 M: test drug 10^−8 M
Procedure: The thoracic aorta of each Hartley male guinea pig (body weight: 300-500 g) was excised. A preparation cut in a helical form was suspended under 1 g load in a Magnus cylinder filled with the Tyrode solution which had been aerated with a gas mixture of 95% O2+5% CO2 and maintained at 37° C. Using an isometric transducer (“TB-612J”, manufactured by NIHON KOHDEN) and a pressure preamplifier (“AP-620G”, manufactured by NIHON KOHDEN), variations in tension were measured. The isometric tensions were recorded on a thermal pen-writing recorder (“WT-647G”, manufactured by NIHON KOHDEN).
Taking the tonic contraction induced by 10^−5 M norepinephrine (NE) as 100%, the percent contractions upon addition of each test drug at 10^−8 and 10^−7 M were determined as anti-α1 action.

Row | Structure (SMILES) | Anti 5-HT action (% of Control) 10^−6 M (serotonin-2 receptor) | Anti 5-HT action (% of Control) 10^−7 M (serotonin-2 receptor) | Anti α1 action (% of Control) 10^−7 M (α1 receptor) | Anti α1 action (% of Control) 10^−8 M (α1 receptor)
1 | O=S1(=O)c2ccccc2C2(CN1CCCN1CCN(c3ccc(F)cc3)CC1)OCCO2 [Compound No. 62, 2-[3-[4-(4-fluorophenyl)piperazin-1-yl]propyl]-3,4-dihydro-2H-1,2-benzothiazin-4-one 1,1-dioxide ethylene acetal] | 3.3 % of Control | 14.1 % of Control | 53.1 % of Control | 98.1 % of Control
2 | O=S1(=O)c2cccc(Cl)c2C2(CN1CCCN1CCN(c3ccc(O)cc3)CC1)OCCO2 [Compound No. 114, 5-chloro-2-[3-[4-(4-hydroxyphenyl)piperazin-1-yl]propyl]-3,4-dihydro-2H-1,2-benzothiazin-4-one 1,1-dioxide ethylene acetal] | – | 23.5 % of Control | 98.9 % of Control | 101.1 % of Control
3 | COc1cccc2c1C1(CN(CCCN3CCN(c4ccc(F)cc4)CC3)S2(=O)=O)SCCS1 [Compound No. 123, 2-[3-[4-(4-fluorophenyl)piperazin-1-yl]propyl]-5-methoxy-3,4-dihydro-2H-1,2-benzothiazine-4-spiro-2′-(1′,3′-dithiolane) 1,1-dioxide] | – | 49.3 % of Control | 13.0 % of Control | 97.9 % of Control
4 | COC1=CN(CCCN2CCN(c3ccc(F)cc3)CC2)S(=O)(=O)c2ccccc21 [Compound No. 56, 2-[3-[4-(4-fluorophenyl)piperazin-1-yl]propyl]-4-methoxy-2H-1,2-benzothiazine 1,1-dioxide] | 16.9 % of Control | 60.8 % of Control | 69.5 % of Control | 95.4 % of Control
5 | COc1ccc2c(c1)C1(CN(CCCN3CCC(C(=O)c4ccc(F)cc4)CC3)S2(=O)=O)OCCO1 [Compound No. 116, 2-[3-[4-(4-fluorobenzoyl)piperidino]-propyl]-6-methoxy-3,4-dihydro-2H-1,2-benzothiazin-4-one 1,1-dioxide ethylene acetal] | 13.9 % of Control | 40.2 % of Control | 88.3 % of Control | 100.7 % of Control
6 | O=S1(=O)c2ccc(Cl)cc2C2(CN1CCCN1CCN(c3ccc(F)cc3)CC1)OCCO2 [Compound No. 117, 6-chloro-2-[3-[4-(4-fluorophenyl)piperazin-1-yl]propyl]-3,4-dihydro-2H-1,2-benzothiazin-4-one 1,1-dioxide ethylene acetal] | 23.6 % of Control | 48.0 % of Control | 80.2 % of Control | 97.1 % of Control
7 | O=S1(=O)c2ccccc2C2(CN1CCCN1CCN(c3ccccn3)CC1)OCCO2 [Compound No. 46, 2-[3-[4-(2-pyridyl)piperazin-1-yl]-propyl]-3,4-dihydro-2H-1,2-benzothiazin-4-one 1,1-dioxide ethylene acetal] | 5.5 % of Control | 39.8 % of Control | 97.4 % of Control | 100 % of Control
8 | COc1ccc2c(c1)S(=O)(=O)N(CCCN1CCC(C(=O)c3ccc(F)cc3)CC1)CC21OCCO1 [Compound No. 120, 2-[3-[4-(4-fluorobenzoyl)piperidino]propyl]-7-methoxy-3,4-dihydro-2H-1,2-benzothiazin-4-one 1,1-dioxide ethylene acetal] | 20.3 % of Control | 51.6 % of Control | 71.6 % of Control | 93.2 % of Control
9 | COc1cccc2c1C1(CN(CCN3CCN(c4ccc(F)cc4)CC3)S2(=O)=O)OCCO1 [Compound No. 109, 2-[2-[4-(4-fluorophenyl)piperazin-1-yl]ethyl]-5-methoxy-3,4-dihydro-2H-1,2-benzothiazin-4-one 1,1-dioxide ethylene acetal] | – | 10.5 % of Control | 96.1 % of Control | 99.3 % of Control
10 | COc1ccc2c(c1)C1(CN(CCCN3CCN(c4ccc(F)cc4)CC3)S2(=O)=O)OCCO1 [Compound No. 115, 2-[3-[4-(4-fluorophenyl)piperazin-1-yl]propyl]-6-methoxy-3,4-dihydro-2H-1,2-benzothiazin-4-one 1,1-dioxide ethylene acetal] | 14.1 % of Control | 63.0 % of Control | 62.3 % of Control | 100.4 % of Control
11 | COc1cccc2c1C1(CN(CCCN3CCN(c4ccc(O)cc4)CC3)S2(=O)=O)OCCO1 [Compound No. 111, 2-[3-[4-(4-hydroxyphenyl)piperazin-1-yl]propyl]-5-methoxy-3,4-dihydro-2H-1,2-benzothiazin-4-one 1,1-dioxide ethylene acetal] | – | 10.9 % of Control | 98.6 % of Control | 100.9 % of Control
12 | O=S1(=O)c2ccccc2C2(CN1CCCN1CCN(c3ccccc3F)CC1)OCCO2 [compound 35, 2-[3-[4-(2-fluorophenyl)piperazin-1-yl]propyl]-3,4-dihydro-2H-1,2-benzothiazin-4-one 1,1-dioxide ethylene acetal] | 7.5 % of Control | 38.3 % of Control | 89.3 % of Control | 99.0 % of Control
13 | O=S1(=O)c2cccc(Cl)c2C2(CN1CCCN1CCN(c3ccc(F)cc3)CC1)OCCO2 [Compound No. 113, 5-chloro-2-[3-[4-(4-fluorophenyl)piperazin-1-yl]propyl]-3,4-dihydro-2H-1,2-benzothiazin-4-one 1,1-dioxide ethylene acetal] | – | 49.5 % of Control | 89.3 % of Control | 98.3 % of Control
14 | COC1(OC)CN(CCCN2CCN(c3ccc(F)cc3)CC2)S(=O)(=O)c2ccccc21 [Compound No. 55, 2-[3-[4-(4-fluorophenyl)piperazin-1-yl]propyl]-4,4-dimethoxy-3,4-dihydro-2H-1,2-benzothiazine 1,1-dioxide] | 7.4 % of Control | 23.4 % of Control | 89.2 % of Control | 100 % of Control
15 | O=C(c1ccc(F)cc1)C1CCN(CCCN2CC(O)c3ccccc3S2(=O)=O)CC1 (stereo not shown) [Compound No. 76, 2-[3-[4-(4-fluorobenzoyl)piperidino]-propyl]-4-hydroxy-3,4-dihydro-2H-1,2-benzothiazine 1,1-dioxide] | 21.7 % of Control | 53.9 % of Control | 88.2 % of Control | 100 % of Control
16 | COC1CN(CCCN2CCN(c3ccc(F)cc3)CC2)S(=O)(=O)c2ccccc21 (stereo not shown) [Compound No. 57, 2-[3-[4-(4-fluorophenyl)piperazin-1-yl]propyl]-4-methoxy-3,4-dihydro-2H-1,2-benzothiazine 1,1-dioxide] | 10.0 % of Control | 22.0 % of Control | 81.6 % of Control | 97.3 % of Control
17 | O=S1(=O)c2ccccc2C2(CN1CCCN1CCN(c3ccc(F)cc3)CC1)OCCCO2 [Compound No. 64, 2-[3-[4-(4-fluorophenyl)piperazin-1-yl]propyl]-3,4-dihydro-2H-1,2-benzothiazine-4-spiro-2′-(1′,3′-dioxane) 1,1-dioxide] | 13.8 % of Control | 24.8 % of Control | 84.9 % of Control | 97.3 % of Control
18 | O=S1(=O)c2ccccc2C2(CN1CCCN1CCN(c3ccc(F)cc3)CC1)SCCS2 [Compound No. 66, 2-[3-[4-(4-fluorophenyl)piperazin-1-yl]propyl]-3,4-dihydro-2H-1,2-benzothiazine-4-spiro-2′-(1′,3′-dithiolan) 1,1-dioxide] | 2.8 % of Control | 66.6 % of Control | 86.5 % of Control | 100 % of Control
